“And” between values parts separate entries of the source, which are not always exact repeats. Equal values may be shown once.
Tests used:
NKCC1 pThr203/207/212 = assay: Pharmacodynamic study, NKCC1 phosphorylation in brain of naive mice; format: in vivo, mouse; conditions: for NKCC1 phosphorylation (pThr203/207/212) in naive brains: 60 min after administration; for pTh203.207.212 / NKCC1: Fig S8a (brain)
Experimental: (§1) To define ZT-1a efficacy in naive mice in vivo, we examined phosphorylation of SPAK, NKCC1, and NCC in kidney, and phosphorylation of SPAK, NKCC1, and KCC3 in brain, after intraperitoneal (i.p.) administration of either ZT-1a (10, 30, 50, and 100 mg/kg) or Closantel (50 mg/kg as a reference). […]
(§2) 5. Pharmacodynamic (PD) study
(§3) Male C57BL/6j wild-type mice (6 weeks old, Charles River Laboratories Edinburgh UK) were treated with ZT-1a (in DMSO, Sigma) by subcutaneous injection at doses of 0, 3, 10, 30, 50 and 100 mg/kg. 50 mg/kg Closantel was administered as a comparative control. Vehicle control mice were treated with an equal volume of DMSO solution. One hour after administration, mice were sacrificed by cervical dislocation, and kidney and brain tissues were rapidly dissected and snap-frozen in liquid nitrogen. Age- […]
(§4) free conditions at the University of Dundee (UK) as described in our recent study1. Animal experiments and breeding were approved by the University of Dundee ethical committee and performed under a […]
(§5) Policy on the Care, Welfare and Treatment of Animals, and regulations set by the University of Dundee and the U.K. Home Office. […]
(§6) Brain and kidney tissues were collected at 60 min post injection, and proteins subjected to immunoblot were probed with antibodies specific for phosphorylated forms of SPAK,

C57BL/6J mice = assay: Kaplan-Meier survival of naive and ischemic stroke mice at 25 mg/kg; format: in vivo, mouse; conditions: for mortality in naive mice: 0-7 days, n = 3; for Days elapsed: Fig S12, single mice
Experimental: We compared the neuroprotective efficacy of Closantel with that of the pan-WNK-kinase inhibitor WNK463. […] Moreover, toxicity of Closantel and ZT-1a at 25 mg/kg in naive and ischemic stroke mice was reflected in Kaplan–Meier survival curves (Supplementary Fig. 12).
Supplemental Fig. 12 Kaplan-Meier survival curve of naïve and ischemic stroke mice treated with […]
Normal naïve C57BL/6J mice, or mice after tMCAO randomly received Closantel or ZT-1a treatment […]
was monitored for 0-7 days post-treatment. No mortality was detected in the naïve mice treated with Closantel or ZT-1a. However, all ischemic stroke mice treated with Closantel died within 2 days, with a […]
median survival of 1 day. […]
days). n = 3 per group (naïve+Closantel or naive+ZT-1a), n = 6 per group (tMCAO+vehicle or tMCAO+Closantel or tMCAO+ZT-1a), *p < 0.05, Log-rank test.

SPAK phosphorylation = assay: Pharmacodynamic study, SPAK phosphorylation in kidney of naive mice; format: in vivo, mouse; conditions: Fig S8b (kidney)
Experimental: as §1, §2, §3, §4, §5, §6

HEK-293 cells = assay: 86Rb+ uptake assay in empty-vector-transfected HEK-293 cells; format: cell-based, human; set-up: key: 86Rb+ uptake in CPM per mg protein; conditions: Empty V + 1a (10 µM), replicates
Experimental: (§7) Thirty-six hours post transfection, cells were exposed for 30 min to either control isotonic conditions or hypotonic low [Cl^−] conditions (to activate the SPAK/OSR1 pathway), and then treated for an additional 30 min in the same conditions with the indicated ZT-1a concentrations in the presence of 1 mM ouabain and 0.1 mM bumetanide. Ten-minute ^86Rb^+ uptake values were quantified by scintillation counting, normalized per mg protein for each condition, and plotted for both isotonic and hypotonic conditions. ***p < 0.001; **p < 0.01; *p < 0.05; ns—nonsignificant [by one-way ANOVA with post hoc testing (n = 6, error bars represent the mean ± SEM)]. b ^86Rb^+ uptake assays in the presence of ZT-1a measure transport activity of NKCC1. […] Thirty-six hours post transfection, cells were exposed for 30 min to either control isotonic conditions or hypotonic low [Cl^−] conditions (to activate the SPAK/OSR1 pathway), and then treated in the same conditions for an additional 30 min with 10 µM ZT-1a or 0.1 mM bumetanide (Bum) in the presence of 1 mM ouabain (Na^+/K^+-ATPase inhibitor). ^86Rb^+ uptake was allowed to proceed for 10 min and was then quantified by scintillation counting. ^86Rb^+ uptake CPMs were normalized per mg protein and plotted for both isotonic and hypotonic conditions. […] Thirty-six hours post transfection, cells were exposed for 30 min to either control isotonic conditions or hypotonic low [Cl^−] conditions (to activate the SPAK/OSR1 pathway), and then treated for an additional 30 min in the same conditions with the indicated ZT-1a concentrations in the presence of 1 mM ouabain. Ten-minute ^86Rb^+ uptake values were quantified by scintillation counting, normalized per mg protein for each condition, and plotted for both isotonic and hypotonic conditions. ***p < 0.001; **p < 0.01; *p < 0.05; ns—nonsignificant [by one-way ANOVA with post hoc testing (n = 6, error bars represent the mean ± SEM)].
(§8) This stimulating medium was then removed and replaced with isotonic medium containing inhibitors plus 2 µCi/ml ^86Rb^+. After incubation for 10 min at 37 °C, cells were rapidly washed three times with the respective ice-cold nonradioactive medium. Washed cells were lysed in 300 µl of ice-cold lysis buffer and ^86Rb^+ uptake was quantitated by liquid scintillation counting (PerkinElmer).

KCC4 pThr926/pThr980 = assay: Choroid plexus KCC4 phospho-IP/immunoblot in rat IVH model; format: in vivo
NKCC1 = assay: 86Rb+ uptake assay for NKCC1 activity in HEK-293 cells; format: cell-based; set-up: key to 86Rb+ uptake: 86Rb+ uptake in CPM per mg protein; conditions: for 86Rb+ uptake: replicates
Experimental: as §7, §8

[1] = rat CPe 48 h post IVH + 1a, replicates

Structure (SMILES): Cc1cc(C(C#N)c2ccc(Cl)cc2)c(Cl)cc1NC(=O)c1cc(I)cc(I)c1O (stereo not drawn) [Closantel, reference compound]
- NKCC1 phosphorylation (pThr203/207/212) in naive brains (NKCC1 pThr203/207/212): neither drug had reduced
- pTh203.207.212 / NKCC1 (NKCC1 pThr203/207/212; 50 mg/kg): 0.63 and 0.62 and 0.71 and 0.68
- mortality of ischemic stroke mice (C57BL/6J mice; 25 mg/kg): 100%
- mortality in naive mice (C57BL/6J mice; 25 mg/kg i.p.): No mortality
- time by which all ischemic stroke mice died (C57BL/6J mice; 25 mg/kg i.p., tMCAO): ≤ 2 days
- median survival of ischemic stroke mice (C57BL/6J mice; 25 mg/kg i.p., tMCAO, n = 6): 1 days
- Days elapsed (C57BL/6J mice; MCAO mice): 1 days and 2 days
- Days elapsed (C57BL/6J mice; mice without MCAO): 7 days
- toxicity in mice at higher doses (C57BL/6J mice; ~25 mg/kg): toxicity
- pSer373 / SPAK (SPAK phosphorylation; 50 mg/kg): 0.54 and 0.38 and 0.32 and 0.46

Structure (SMILES): Cc1cc(C(C#N)c2ccc(Cl)cc2)c(Cl)cc1NC(=O)c1cc(Cl)ccc1O (stereo not drawn) [ZT-1a, 5-chloro-N-(5-chloro-4-((4-chlorophenyl)(cyano)methyl)-2-methylphenyl)-2-hydroxybenzamide]
- NKCC1 phosphorylation (pThr203/207/212) in naive brains (NKCC1 pThr203/207/212): neither drug had reduced
- pTh203.207.212 / NKCC1 (NKCC1 pThr203/207/212; 10 mg/kg): 0.75 and 0.66 and 0.74 and 0.69
- pTh203.207.212 / NKCC1 (NKCC1 pThr203/207/212; 30 mg/kg): 0.62 and 0.59 and 0.64 and 0.61
- pTh203.207.212 / NKCC1 (NKCC1 pThr203/207/212; 50 mg/kg): 0.66 and 0.75 and 0.63 and 0.69
- pTh203.207.212 / NKCC1 (NKCC1 pThr203/207/212; 100 mg/kg): 0.61 and 0.67 and 0.74 and 0.58
- 86Rb+ uptake (HEK-293 cells; Fig 3a, Hypotonic low Cl-, ouabain + bumetanide): 508.8 and 600.6 and 529.6 and 455.1 and 564.1 and 478.5
- 86Rb+ uptake (HEK-293 cells; Fig 3a, Isotonic control, ouabain + bumetanide): 1279.7 and 1082.2 and 1111.5 and 1436.1 and 1321.4 and 1109.8
- 86Rb+ uptake (HEK-293 cells; Fig 3b, Hypotonic low Cl-, ouabain): 1181.7 and 899.6 and 1029.4 and 1120.4 and 1269.1 and 946.3
- 86Rb+ uptake (HEK-293 cells; Fig 3b, Isotonic control, ouabain): 905.2 and 735.8 and 874.1 and 801.5 and 957.4 and 886.4
- mortality in naive mice (C57BL/6J mice; 25 mg/kg i.p.): No mortality
- survival of ischemic stroke mice (C57BL/6J mice; 25 mg/kg i.p., Kaplan–Meier, n = 6): survived longer than Closantel-treated mice
- median survival of ischemic stroke mice (C57BL/6J mice; C57BL/6J, mouse, in vivo): 4 days
- KCC4 / Actin (KCC4 pThr926/pThr980; [1]): 2.09 and 2.11 and 2.1 and 2.05 and 2.15 and 2.12
- KCC4 pThr926 / Actin (KCC4 pThr926/pThr980; [1]): 0.241 and 0.354 and 0.43 and 0.261 and 0.376 and 0.487
- KCC4 pThr980 / Actin (KCC4 pThr926/pThr980; [1]): 0.279 and 0.426 and 0.524 and 0.299 and 0.447 and 0.541
- reduction of post-IVH KCC4 phosphorylation at Thr926/Thr980 (KCC4 pThr926/pThr980; rat CPe, ICV ZT-1a): ~ 2 fold
- pSer373 / SPAK (SPAK phosphorylation; 10 mg/kg): 0.9 and 1.08 and 0.92 and 0.99
- pSer373 / SPAK (SPAK phosphorylation; 30 mg/kg): 0.85 and 0.8 and 0.86 and 0.76
- pSer373 / SPAK (SPAK phosphorylation; 50 mg/kg): 0.56 and 0.45 and 0.51 and 0.41
- pSer373 / SPAK (SPAK phosphorylation; 100 mg/kg): 0.37 and 0.44 and 0.38 and 0.4
- 86Rb+ uptake (NKCC1; Fig 3b right, NKCC1, ZT-1a 1 uM, Hypotonic low Cl-): 31312.2 and 30912.6 and 28110.4 and 29118.3 and 28103.5 and 29176.8
- 86Rb+ uptake (NKCC1; Fig 3b right, NKCC1, ZT-1a 1 uM, Isotonic control): 5076.2 and 4867.3 and 5812.7 and 4239.7 and 5129.6 and 5519.2
- 86Rb+ uptake (NKCC1; Fig 3b right, NKCC1, ZT-1a 3 uM, Hypotonic low Cl-): 14078.7 and 13156.2 and 15002.4 and 14182.5 and 14354.3 and 14621.6
- 86Rb+ uptake (NKCC1; Fig 3b right, NKCC1, ZT-1a 3 uM, Isotonic control): 3812.1 and 3286.7 and 4513.3 and 4013.5 and 3012.8 and 3586.3
- 86Rb+ uptake (NKCC1; Fig 3b right, NKCC1, ZT-1a 10 uM, Hypotonic low Cl-): 3712.6 and 5014.2 and 4381.3 and 3518.2 and 4604.5 and 3837.1
- 86Rb+ uptake (NKCC1; Fig 3b right, NKCC1, ZT-1a 10 uM, Isotonic control): 1476.7 and 1378.3 and 1409.2 and 1215.2 and 1522.8 and 1368.4
- 86Rb+ uptake (NKCC1; Fig 3b, NKCC1 + 1a (10 µM), Hypotonic low Cl-): 7709.2 and 9015.3 and 7102.3 and 8791.5 and 8682.5 and 8108.1
- 86Rb+ uptake (NKCC1; Fig 3b, NKCC1 + 1a (10 µM), Isotonic control): 1446.7 and 1247.2 and 1369.6 and 1195.7 and 1501.2 and 1382.8
- NKCC1-mediated K+ influx (NKCC1; ZT-1a at concentration > 1 µM, isotonic or hypotonic low Cl−): significantly inhibited
